In patent US4149007A, “C14 Phenyl-substituted derivatives of prostaglandin analogues” (Miles Laboratories, Inc., priority 1977, dated 1979):
“Also recorded” adds a separate entry of the source.

Assays:
[1] = system: guinea pig ileum; experiment: Antagonism of the effects of PGE1 on the guinea pig ileum in vitro; format: cell-based; details: listed as TR 4412
Description: (§1) The degree and specificity of antagonism of test compounds to the smooth muscle stimulant effects of prostaglandins were assessed in segments of terminal guinea pig ileum. Preparations were placed in tissue chambers filled with Ringer-Tyrode solution at 37° C., bubbled with a mixture of 95% O2 and 5% CO2, and arranged for isometric recording with force displacement transducers. The segments were stretched to an initial tension of 1 g, and responses to a test concentration of acetylcholine (0.1 mcg/ml) were obtained every 5 minutes until two similar responses were observed (usually after four administrations). […] Any direct contractile effect of the test compound was recorded and evaluated in terms of mean values in grams of tension developed at each concentration. Responses to the different agonists observed after incubation with the test compound were expressed as percent of control responses. All drugs were administered in a volume of 0.1 ml.
(§2) Antagonism to prostaglandins was scored independently for PGE1 and PGF2α according to the following criteria: […]

[2] = system: anesthetized cat; experiment: Effects on blood pressure and heart rate in the anesthetized cat; format: in vivo; details: i.v. 0.01 to 10.0 mcg/kg, scored on hypotension only
Description: (G) effect on blood pressure and heart rate in the anesthetized cat;
The acute effects of test compounds on blood pressure and heart rate were determined in cats of either sex anesthetized with a mixture of pentobarbital sodium (35 mg/kg, i.v.) and barbital sodium (100 mg/kg, i.v.). Cannulas were placed in the trachea to allow adequate spontaneous ventilation, in a femoral artery for blood pressure recording with a strain gage transducer, and in a saphenous vein for drug administration. Heart rate was recorded by means of a cardiotachometer driven by the R wave of the electrocardiogram. After a period of 10 minutes of stable recordings of blood pressure and heart rate, the test compound was administered intravenously at doses increasing from 0.01 to 10.0 mcg/kg, spaced one log and injected at 10 minute intervals. All doses were injected in a volume of 0.1 ml/kg. Modifications of blood pressure and heart rate induced by the test compound were expressed both in absolute units (mmHg and beats/minute) and as percent of values recorded immediately before administration of each dose. […]
Activity of compounds in this test was judged only on the basis of the degree of hypotension observed. Thus, the ED50 mmHg (dose decreasing blood pressure by 50 mmHg) was calculated graphically, and the compound scored according to the following scale: […]

[3] = system: guinea pig ileum; experiment: Antagonism of the effects of PGF2α on the guinea pig ileum in vitro; format: cell-based; details: listed as TR 4412
Description: as §1, §2

[4] = system: hypertensive rat; experiment: Effects on blood pressure in the hypertensive rat; format: in vivo; design: key: 0: Not significant at any time interval; 1: Significant at one time interval; 2: Significant at two time intervals; details: 1 mg/kg intraperitoneal; 2, 4, 6 and 9 hours
Description: (I) effect on systolic blood pressure in the hypertensive rat
The acute anithypertensive activity of test compounds was determined in rats made hypertensive by the procedure of Grollman (Proc. Soc. Exper Biol. Med., 57: 102 [1944]). Female rats weighing between 60 and 100 g were anesthetized with ether, the right kidney approached through a flank retroperitoneal incision, decapsulated and tied with a figure-of-eight-ligature. The animals were left to recover and two weeks later were again anesthetized and the contralateral kidney removed. […]
Blood pressure was measured in the tail with an inflatable occluding cuff placed at the base of the extremity and a pulse detector located distally. The cuff was inflated to approximately 300 mmHg and was slowly deflated until pulsations appeared, indicating the level of systolic pressure; diastolic pressure was not recorded by this procedure. […] In all cases, three pressure readings were obtained in succession and mean values were calculated thereof.
Experiments were carried out in groups of five hypertensive rats in which systolic pressure was determined immediately before and 2, 4, 6 and 9 hours after intraperiotoneal administration of the test compound at a dose of 1 mg/kg. Drugs were diluted from stock solutions with phosphate buffer (Lee et al., Prostaglandins, 3: 29 [1973]), so as to inject this quantity in a volume of 1 ml/kg. […]

[5] = system: rat uterus; experiment: Effects on the rat uterus in vitro; format: cell-based; details: dose producing response 50% that of carbachol
Description: (B) effect on the rat uterus in vitro;
The uterine stimulant effect of test compounds was determined in segments of uterus obtained from rats (140-160 g) pretreated subcutaneously with 1 mg/kg of diethylstilbesterol 18 hours before the experiment. The tissues were placed in 10 ml chambers filled with de-Jalon solution at 29° C., were aerated and bubbled with 95% O2 and 5% CO2, and were prepared for isometric recording with force displacement transducers. Preparations were stretched to an initial tension of 1 g and were left undisturbed for 30 minutes. Carbachol (1 mcg/ml) was then added to the bath and a response was recorded. After a ten minute interval the carbachol procedure was repeated. Responses to increasing concentrations of a test compound (0.001 to 10 mcg/ml with one log intervals) were then recorded every 10 minutes. Preparations were washed four times after each response. All doses of compounds were administered in a 0.1 ml volume. Because it has been observed that the magnitude of the second response to carbachol (approximately 10% greater than the first) is close to the maximal response of the tissue, such value was taken as a measure of the sensitivity of a particular segment. Responses to each concentration of the test compound were expressed in terms of percentage of the second response to carbachol and the ED50 (dose producing a response 50% that of carbachol) was calculated graphically.
Activity was scored according to the following scale: […]

[6] = system: anesthetized dog; experiment: Effects on femoral blood flow in the anesthetized dog; format: in vivo; details: intraarterial 0.001 to 10 mcg
Description: (H) effect on femoral blood flow in the anesthetized dog; and
The peripheral vasodilator or constrictor effects of test compounds were determined in mongrel dogs of either sex, weighing between 10 and 20 kg, anesthetized intravenously with 35 mg/kg of pentobarbital sodium. An external iliac artery was dissected immediately above the femoral arch for a length of approximately 5 cm, and a previously calibarated, non-cannulating electromagnetic-flowmeter sensor with a lumen between 2.5 and 3.5 mm was placed snugly around the vessel. Cannulas were placed in a branch of the artery arising distally to the location of the flowmeter sensor for intraarterial drug administrations, in the contralateral femoral artery for systemic blood pressure recording, and in the trachea for artificial respiration with room air. Femoral blood flow and systemic blood pressure were continuously recorded with an electromagnetic flowmeter and pressure transducer, respectively.
After an adequate control period, test compounds were injected intraarterially at one log-spaced doses ranging from 0.001 to 10 mcg, in a volume of 0.5 ml and at 5 to 10 minute intervals. […] The dose changing blood flow by 100 ml/min (ED100 ml/min) was calculated graphically and was used for scoring activity as follows: […]

[7] = system: guinea pig trachea; experiment: Effects on the guinea pig trachea in vitro; format: cell-based; details: 0.01-10.0 mcg/ml, relative to PGE1 0.1 mcg/ml
Description: (C) effect on the guinea pig trachea in vitro;
A male guinea pig weighing 200-500 g was killed by a blow on the head. A 20 mm length of the trachea was dissected from the animal, transferred to a petri dish containing Krebs' solution (aerated with 95% O2 and 5% CO2 at 37° C.), and cut longitudinally opposite the tracheal muscle. The tissue was then cut transversely three quarters of the distance across, a second cut in the opposite direction (again three quarters of the distance across the tissue) was made and the procedure was continued for the whole tissue. The ends of the trachea were pulled to form a zig-zig shaped strip. The tracheal strip used in the experiment was approximately 30 mm when extended under 0.25-0.5 g load in the tissue bath. Cotton thread was tied to one end of the tissue, and linen thread to the other. It was attached via the linen thread to a glass hook in a 5 ml isolated tissue bath containing Krebs' solution (37° C., aerated with a mixture of 95% O2 and 5% CO2). […]
A test compound was then added to the same two strips at bath concentrations of 0.01, 0.1, 1.0, and 10.0 mcg/ml and the effects of the compound were recorded. […] The mean of the effects of the test compound on the two strips was then calculated for each concentration, and, based on the resulting values, an activity value was assigned as follows: […]

SMILES	antagonism to the smooth muscle stimulant effects of PGE1 (in words) [1]	Feline Blood Pressure, Heart Rate: activity value (ED50 mmHg) [2]	antagonism to the smooth muscle stimulant effects of PGF2α (in words) [3]	Blood Pressure Hypertensive Rat: activity value [4]	Rat Uterus: activity value (ED50) [5]	Femoral Blood Flow: activity value (ED100 ml/min) [6]	Guinea Pig Trachea: activity value [7]
CCCCC[C@H](O)/C(=C/[C@H]1[C@H](O)CC(=O)[C@@H]1CCCCCCC(=O)OC)c1ccccc1 [Example 1, Methyl 14-Phenyl-11α,15S-dihydroxy-9-oxoprost-13E-en-1-oate]	exhibited antagonism to the smooth muscle stimulant effects of PGE1 and PGF2α; also recorded: demonstrated a specificity of antagonism to the smooth muscle stimulant effects of PGE1 and PGF2α	0 (>10.0)	exhibited antagonism to the smooth muscle stimulant effects of PGE1 and PGF2α; also recorded: demonstrated a specificity of antagonism to the smooth muscle stimulant effects of PGE1 and PGF2α	0	0 (>10)	0 (>10.0)	
CCCCC[C@@H](O)/C(=C/[C@H]1[C@H](O)CC(=O)[C@@H]1C/C=C\CCCC(=O)OCC)c1ccccc1 [Example 7A, Ethyl 14-Phenyl-11α,15R-dihydroxy-9-oxoprosta-5Z,13E-dien-1-oate]					0 (>10)		1
